# Test results reported in patent US20140107100A1, “Benzoxazepines as Inhibitors of PI3K/mTOR and Methods of Their Use and Manufacture” (EXELIXIS, INC., priority 2010, published 2014).
# pIC50: −log10 of the molar value.
# Key:
# mTOR/GbL/Raptor (mTORC1) = mTOR/GbL/Raptor (mTORC1) (Homo sapiens, UniProt P42345); test: mTOR/GbL/Raptor (mTORC1) ELISA assay, phosphorylation of 4E-BP1; assay type: biochemical; settings: 0.2 nM mTORC1, 40 uM ATP, 50 nM NHis-tagged 4E-BP1, 120 minutes; read-out: IC50 in this assay (mTORC1 ELISA)
# How it was run: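 Phospho-4E-BP1 was quantified by luminescent ELISA (anti-phospho-4E-BP1 IgG, HRP-tagged secondary) after capture of the His-tagged substrate on Ni-chelate plates.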
# PI3Kα = PI3Kα (Homo sapiens, UniProt P42336); test: PI3K biochemical assay, ATP consumption by luciferase-luciferin chemiluminescence; settings: 3 nM enzyme, 10 μM PIP2, approximately 2 h; read-out: IC50 in the PI3K-alpha assay
# Chain of PI3Kα (P42336 whole entry): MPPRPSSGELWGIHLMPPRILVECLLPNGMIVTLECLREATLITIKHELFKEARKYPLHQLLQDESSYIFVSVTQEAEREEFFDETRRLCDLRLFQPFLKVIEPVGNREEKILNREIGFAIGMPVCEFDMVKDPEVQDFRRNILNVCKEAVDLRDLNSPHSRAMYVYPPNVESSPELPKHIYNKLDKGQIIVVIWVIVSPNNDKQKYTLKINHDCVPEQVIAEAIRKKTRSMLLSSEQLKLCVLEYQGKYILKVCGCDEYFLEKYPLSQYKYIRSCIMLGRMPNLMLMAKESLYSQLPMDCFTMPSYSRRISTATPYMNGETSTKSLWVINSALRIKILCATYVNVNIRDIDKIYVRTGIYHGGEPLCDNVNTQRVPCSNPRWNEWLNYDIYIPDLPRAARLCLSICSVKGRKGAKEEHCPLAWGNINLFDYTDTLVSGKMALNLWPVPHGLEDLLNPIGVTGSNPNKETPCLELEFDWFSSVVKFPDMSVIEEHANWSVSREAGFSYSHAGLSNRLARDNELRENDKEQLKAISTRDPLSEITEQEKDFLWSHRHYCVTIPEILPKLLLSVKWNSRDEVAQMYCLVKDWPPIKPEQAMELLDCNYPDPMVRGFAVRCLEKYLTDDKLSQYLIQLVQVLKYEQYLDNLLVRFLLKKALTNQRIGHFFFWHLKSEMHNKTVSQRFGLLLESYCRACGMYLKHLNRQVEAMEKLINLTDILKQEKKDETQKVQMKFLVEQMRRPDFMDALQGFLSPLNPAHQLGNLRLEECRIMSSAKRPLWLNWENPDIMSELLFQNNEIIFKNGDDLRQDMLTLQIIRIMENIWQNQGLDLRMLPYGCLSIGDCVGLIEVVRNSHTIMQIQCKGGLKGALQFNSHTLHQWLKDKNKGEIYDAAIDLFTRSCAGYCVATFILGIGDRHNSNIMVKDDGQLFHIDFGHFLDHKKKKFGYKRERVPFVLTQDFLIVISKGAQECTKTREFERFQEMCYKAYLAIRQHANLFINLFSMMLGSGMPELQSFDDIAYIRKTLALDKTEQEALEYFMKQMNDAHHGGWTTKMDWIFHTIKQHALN
# Chain of PI3Kα (P27986 whole entry partner): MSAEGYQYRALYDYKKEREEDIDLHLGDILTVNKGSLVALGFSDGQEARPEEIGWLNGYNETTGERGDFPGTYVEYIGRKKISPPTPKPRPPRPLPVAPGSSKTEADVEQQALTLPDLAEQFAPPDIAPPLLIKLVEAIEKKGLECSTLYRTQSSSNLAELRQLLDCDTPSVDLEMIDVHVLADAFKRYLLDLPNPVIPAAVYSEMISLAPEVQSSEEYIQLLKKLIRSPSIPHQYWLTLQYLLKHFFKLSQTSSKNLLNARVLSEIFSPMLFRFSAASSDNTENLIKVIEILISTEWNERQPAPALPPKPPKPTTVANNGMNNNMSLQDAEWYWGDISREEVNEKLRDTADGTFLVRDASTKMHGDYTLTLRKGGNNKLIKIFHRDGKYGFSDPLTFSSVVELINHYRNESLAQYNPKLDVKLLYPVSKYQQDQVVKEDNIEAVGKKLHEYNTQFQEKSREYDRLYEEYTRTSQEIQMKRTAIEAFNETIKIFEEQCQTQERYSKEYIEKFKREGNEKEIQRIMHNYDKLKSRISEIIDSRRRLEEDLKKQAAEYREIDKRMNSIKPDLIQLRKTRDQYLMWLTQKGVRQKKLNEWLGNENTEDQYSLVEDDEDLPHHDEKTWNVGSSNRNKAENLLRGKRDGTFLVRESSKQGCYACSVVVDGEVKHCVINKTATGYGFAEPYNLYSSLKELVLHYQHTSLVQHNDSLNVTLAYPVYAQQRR
# Method: P13Kα activity was measured as the percent of ATP consumed following the kinase reaction using luciferase-luciferin-coupled chemiluminescence. Reactions were conducted in 384-well white, medium binding microliter plates (Greiner). Kinase reactions were initiated by combining test compounds. ATP, substrate (PIP2), and kinase in a 20 μL volume in a buffer solution. The standard P13Kalpha assay buffer was composed 50 mM Tris, pH 7.5, 1 mM EGTA, 10 mM MgCl2, 1 mM DTT and 0.03% CHAPS. The standard assay concentrations for enzyme, ATP, and substrate were 3 nM, IpM, and 10 μM, respectively. The reaction mixture was incubated at ambient temperature for approximately 2 h. Following the kinase reaction, a 10 μL aliquot of luciferase-luciferin mix (Promega Kinase-Glo) was added and the chemiluminescence signal measured using a Victor2 or EnVision (Perkin Elmer). Total ATP consumption was limited to 40-60% and IC50 values of control compounds correlate well with literature references. Substituting P13Kα with P13Kβ, […], or PI3Kδ, the inhibitory activity of the compounds for the other isoforms of P13-K were measured. For the P13Kβ and P13Kβ assays, enzyme concentrations were 10 nM and 4 nM. respectively. For the P13γ assay, enzyme concentration was 40 nM, the incubation time was 1 h, and the concentration of MgCl2 in the assay buffer was 5 mM.
SMILES,pIC50 (mTOR/GbL/Raptor (mTORC1)),pIC50 (PI3Kα)
"Cc1cc(-c2cnc(O)c(NS(C)(=O)=O)c2)cc2c1OCCN(c1nc(N)nc(C)c1C(C)C)C2 [Compound 19, N-(5-{4-[2-amino-6-methyl-5-(1-methylethyl)pyrimidin-4-yl]-9-methyl-2,3,4,5-tetrahydro-1,4-benzoxazepin-7-yl}-2-hydroxypyridin-3-yl)methanesulfonamide]",≥ 7.00,5.60 to 6.30
"CCc1cc(-c2cnc3sc(N)nc3c2)cc2c1OCCN(c1nc(N)nc(C)c1C(C)C)C2 [Compound 17, 6-{4-[2-amino-6-methyl-5-(1-methylethyl)pyrimidin-4-yl]-9-ethyl-2,3,4,5-tetrahydro-1,4-benzoxazepin-7-yl}[1,3]thiazolo[5,4-b]pyridin-2-amine]",≥ 7.00,5.60 to 6.30
"C=Cc1cnc(N)nc1N1CCOc2c(C)cc(-c3cnc4sc(N)nc4c3)cc2C1 [Compound 89, 6-[4-(2-amino-5-ethenylpyrimidin-4-yl)-9-methyl-2,3,4,5-tetrahydro-1,4-benzoxazepin-7-yl][1,3]thiazolo[5,4-b]pyridin-2-amine]",≥ 7.00,≥ 7.00
